Source: patent US20240174638A1, “HETEROARYL DERIVATIVES AS APELIN RECEPTOR AGONISTS” (RESEARCH TRIANGLE INSTITUTE, priority 2021, published 2024)

Key:
[1] = test system: Human plasma protein; conditions: 6 h, 1 μM
[2] = test system: Mouse plasma protein; conditions: 6 h, 1 μM
[3] = test system: Rat plasma protein; conditions: 6 h, 1 μM
[4] = in vitro; conditions: human
[5] = in vitro; conditions: mouse, pH 7.4
[6] = in vitro; conditions: rat, pH 7.4
[7] = test system: Salmonella typhimurium (TA98, TA100, TA1535 and TA1537)
[8] = test system: BLEO-induced lung fibrosis in male C57BL/6 mice; experiment: Chronic (21-day) bleomycin-induced lung fibrosis model, prophylactic (Px) and therapeutic (Tx) arms; format: in vivo, mouse
[9] = relative to Vehicle-treated BLEO-instilled controls

Q: What does the source list for `CCCC(=O)Nc1ccc(OCC(O)CNC(C)C)c(C(C)=O)c1` (stereo not drawn) [Acebutolol]?
A: % Protein Bound Rep 1 [1]: −12.84%; % Protein Bound Rep 2 [1]: −22.81%; % Protein Bound Rep 3 [1]: −2.59%; Buffer Concentration Rep 1 [1]: 544.3 nM; Buffer Concentration Rep 2 [1]: 539.8 nM; Buffer Concentration Rep 3 [1]: 494.8 nM; Plasma Concentration Rep 1 [1]: 482.3 nM; Plasma Concentration Rep 2 [1]: 439.6 nM; Plasma Concentration Rep 3 [1]: 482.3 nM; % Protein Bound Rep 1 [2]: 18.36%; % Protein Bound Rep 2 [2]: 23.23%; % Protein Bound Rep 3 [2]: 20.05%; Buffer Concentration Rep 1 [2]: 274.4 nM; Buffer Concentration Rep 2 [2]: 258.1 nM; Buffer Concentration Rep 3 [2]: 268.1 nM; Mean % Protein Bound [2]: 20.50%; Plasma Concentration Rep 1 [2]: 336.0 nM; Plasma Concentration Rep 2 [2]: 336.2 nM; Plasma Concentration Rep 3 [2]: 335.3 nM; % Protein Bound Rep 1 [3]: −11.35%; % Protein Bound Rep 2 [3]: −26.18%; % Protein Bound Rep 3 [3]: −33.75%; Buffer Concentration Rep 1 [3]: 552.8 nM; Buffer Concentration Rep 2 [3]: 571.3 nM; Buffer Concentration Rep 3 [3]: 639.1 nM; Plasma Concentration Rep 1 [3]: 455.6 nM; Plasma Concentration Rep 2 [3]: 452.8 nM; Plasma Concentration Rep 3 [3]: 477.8 nM; recovery at 6 h, 1 μM [4]: 99.4%; recovery at 6 h, 1 μM [5]: 60.3%; recovery at 6 h, 1 μM [6]: 105%

Q: With `COc1ccc2nc3cc(Cl)ccc3c(NCCCNCCCl)c2c1` [ICR-191] as the compound, how does the “Cytotoxicity Code” value [7] read?
A: N

Q: And the “Mean Revertant Colony Counts” value ([7]; Salmonella typhimurium)?
A: 66.00

Q: What about the Ratio ([7]; Salmonella typhimurium) of the same compound?
A: 28.33

Q: With `Cc1ccc(=O)n(-c2ccccc2)c1` [PIRF, Pirfenidone, reference compound] as the compound, how does the 21-day survival rate ([8]; BLEO-instilled mice, Px PIRF 200 mg/kg/day p.o. BID) read?
A: 94%

Q: And the ΔBW ([8]; D0-D21, relative to Vehicle-treated BLEO-instilled controls)?
A: Neither EXAMPLE 22 nor PIRF affected

Q: And the “composite Collagen Volume Fraction (CVF)” value ([8]; Px PIRF 200 mg/kg/day, Vehicle 2.63±0.24%)?
A: 1.87±0.19%

Q: And the “composite Tissue Collagen Fraction (TCF)” value ([8]; Px PIRF 200 mg/kg/day, Vehicle 5.58±0.34%)?
A: 4.43±0.34%

Q: What about the “LW indexed to tibia length (LW:TL)” value [8, 9] of the same compound?
A: Neither EXAMPLE 22 nor PIRF affected

Q: What about the “endpoint lung OH-P content” value [8, 9] of the same compound?
A: Neither EXAMPLE 22 nor PIRF affected

Q: And the “endpoint lung weight (LW)” value [8, 9]?
A: Neither EXAMPLE 22 nor PIRF affected

Q: What about the “final BW” value [8, 9] of the same compound?
A: Neither EXAMPLE 22 nor PIRF affected

Q: And the “serial BW” value [8, 9]?
A: Neither EXAMPLE 22 nor PIRF affected

Q: With `CC(=O)CC(c1ccccc1)c1c(O)c2ccccc2oc1=O` (stereo not drawn) [Warfarin] as the compound, how does the “% Protein Bound Rep 1” value [1] read?
A: 97.59%

Q: And the “% Protein Bound Rep 2” value [1]?
A: 98.26%

Q: What about the “% Protein Bound Rep 3” value [1] of the same compound?
A: 98.01%

Q: What about the “Buffer Concentration Rep 1” value [1] of the same compound?
A: 21.6 nM

Q: And the “Buffer Concentration Rep 2” value [1]?
A: 17.3 nM

Q: What about the “Buffer Concentration Rep 3” value [1] of the same compound?
A: 18.4 nM

Q: And the “Mean % Protein Bound” value [1]?
A: 97.96%

Q: What about the “Plasma Concentration Rep 1” value [1] of the same compound?
A: 897.5 nM

Q: What about the “Plasma Concentration Rep 2” value [1] of the same compound?
A: 993.2 nM

Q: What about the “Plasma Concentration Rep 3” value [1] of the same compound?
A: 926.2 nM

Q: What about the “% Protein Bound Rep 1” value [2] of the same compound?
A: 89.13%

Q: And the “% Protein Bound Rep 2” value [2]?
A: 90.27%

Q: And the “% Protein Bound Rep 3” value [2]?
A: 91.02%

Q: And the “Buffer Concentration Rep 1” value [2]?
A: 91.8 nM

Q: And the “Buffer Concentration Rep 2” value [2]?
A: 89.5 nM

Q: What about the “Buffer Concentration Rep 3” value [2] of the same compound?
A: 82.3 nM

Q: And the “Mean % Protein Bound” value [2]?
A: 90.10%

Q: And the “Plasma Concentration Rep 2” value [2]?
A: 919.8 nM

Q: What about the “Plasma Concentration Rep 3” value [2] of the same compound?
A: 917.0 nM

Q: What about the “% Protein Bound Rep 1” value [3] of the same compound?
A: 99.46%

Q: What about the “% Protein Bound Rep 2” value [3] of the same compound?
A: 99.25%

Q: What about the “% Protein Bound Rep 3” value [3] of the same compound?
A: 97.82%

Q: And the “Buffer Concentration Rep 1” value [3]?
A: 4.4 nM

Q: What about the “Buffer Concentration Rep 2” value [3] of the same compound?
A: 5.9 nM

Q: And the “Buffer Concentration Rep 3” value [3]?
A: 17.7 nM

Q: And the “Mean % Protein Bound” value [3]?
A: 98.80%

Q: What about the recovery at 6 h, 1 μM [4] of the same compound?
A: 95.4%

Q: What about the recovery at 6 h, 1 μM [5] of the same compound?
A: 98.2%

Q: And the recovery at 6 h, 1 μM [6]?
A: 81.4%
